Results reported in a melting point compilation (Tetko et al.; mined from patent text by program, amines drawn as free bases though some values may be those of a salt).

First: NN=CNc1nc(CSCCN=CNS(=O)(=O)c2ccc(Br)cc2)cs1
Second: CNC(=O)NCCSCc1ccccn1
The melting point of the first is higher: 107 to 110 °C for the first, 63 to 66 °C for the second.

First: CSc1c(F)cc(CC(=O)c2ccccc2)cc1F
Second: CCC(=O)Oc1ccc(C(=O)c2ccccc2)cc1
The melting point of the first is higher: 71.8 to 71.9 °C for the first, 53.5 to 54.5 °C for the second.

First: Cc1cccc(Nc2c(N)cc(C(=O)O)cc2S(N)(=O)=O)c1
Second: CC(C)(C)c1ccc(NC(=O)Nc2cccc(C(=O)O)c2)cc1
The melting point of the first is higher: 280 to 282 °C for the first, 147 to 148 °C for the second.

Compared with COc1ccc(C(C#N)Cc2cc(OC)c(OC)c(OC)c2)cc1 (centres undefined), COc1cc(C=O)cc(C#N)c1OC is higher in melting point: 102 to 103 °C for the first, 109 to 112 °C for the second.

CCc1nc2cc(Nc3nccc(-c4ccc(N5CCNCC5)nc4)n3)ccc2o1 and Cc1cc(SCc2ccnc3oc(-c4ccc(C(F)(F)F)cc4)nc23)ccc1OCC(=O)O cannot be ordered by melting point: 156 to 159 °C for the first, 154 to 157 °C for the second.

Compared with CC1CC(=O)NN=C1c1ccc(N2CCOCC2)c([N+](=O)[O-])c1 (centres undefined), CC(=O)N1N=C(c2ccc([N+](=O)[O-])cc2)c2cc3c(cc2C=C1C)OCCOC3 is lower in melting point: 223 to 225 °C for the first, 202 to 204 °C for the second.

First: COC(=O)c1nc(-c2ccc([Si](C)(C)C)c(F)c2F)c(F)c(N)c1OC
Second: COc1nc2cc(Cl)c(F)c(CS(N)(=O)=O)c2nc1OC
The melting point of the first is lower: 123 to 125 °C for the first, 227 to 228 °C for the second.

First: Cc1cc(C)c(C(=O)C(F)(F)F)[nH]1
Second: Cc1ccc(NC(=O)C(C)C)c(-c2ccnc(SC(F)(F)F)n2)c1
The melting point of the first is lower: 80 °C for the first, 114 to 116 °C for the second.

First: COc1ccc([C@@H]2O[C@H]2C(=O)Nc2ccccc2)cc1
Second: CNC(=O)/C(=N/OC)c1ccccc1COc1cccc(OC)n1
The melting point of the first is higher: 162 to 163 °C for the first, 81 to 82 °C for the second.

Compared with CC(C)(C)C(F)(F)c1ccc(C[C@@H](C(=O)O)[C@@H](O)c2cccc(Cl)c2)cc1 (racemic), CCCn1ccc2c(NCCc3ccc(O)cc3)cccc2c1=O is higher in melting point: 141 to 142 °C for the first, 170 to 171 °C for the second.

Cc1cc(SC(=O)N(C)C)c(C(C)(C)C)cc1CO and Cc1ccc(C(=S)c2cc(C(C)(C)C)c(O)c(C(C)(C)C)c2)cc1 cannot be ordered by melting point: 136 °C for the first, 135 to 136 °C for the second.

Compared with COC(=O)c1ccc2c(=O)n(CC(C)C)c(CNC(=O)OC(C)(C)C)c(-c3ccc(Cl)cc3)c2c1, CCC(C)COC(=O)c1ccc(OC(=O)c2ccc(O)cc2)cc1 (centres undefined) is lower in melting point: 205 to 207 °C for the first, 90.8 to 92.6 °C for the second.

First: CC(C)n1nc(-c2c(-c3ccccc3)nn3ccc(Oc4ccccn4)cc23)ccc1=O
Second: O=C1c2ccccc2C(Nc2ccccn2)N1CCCN1CC=C(c2ccccc2)CC1 (centres undefined)
The melting point of the first is lower: 140 to 142 °C for the first, 153 °C for the second.

First: CC(=O)Oc1nc(-c2ccc(C(=O)O)cc2)sc1C
Second: Cc1csc2cc(C(=O)O)ccc12
The melting point of the first is lower: 227 to 230 °C for the first, 230 to 232 °C for the second.

Compared with Cc1ccc(-c2c(C#N)n(C)c(=O)c3ncccc23)cc1, COn1cc(C#N)c(C#N)c1-c1ccc(Cl)cc1 is lower in melting point: 268 to 270 °C for the first, 126 to 127 °C for the second.

First: CCSC(=O)c1c(C(F)(F)F)nc(C(F)F)c(C(=O)OC)c1NC(C)C
Second: Cc1oc2nc3c(c(NC(=O)C(C)C)c2c1C)CCCC3
The melting point of the first is lower: 56 to 59 °C for the first, 245 to 246 °C for the second.

Compared with Cc1ccc(-c2ccc3c(c2)C=C(C(=O)Nc2ccc(Cc4ncccc4O)cc2)CCO3)cc1, COc1ccc(-c2c(SCc3ccccc3)oc3cc(OCc4ccccc4)ccc3c2=O)cc1 is lower in melting point: 285 to 288 °C for the first, 131 °C for the second.

First: CCS(=O)(=O)c1cc2c(c(C(=O)O)c1)OCCO2
Second: CCCOc1ccc(S(=O)(=O)N2CCN(C(C)=O)CC2)c(-c2nc3cc(N)c(N)cc3c(=O)[nH]2)c1
The melting point of the first is higher: 217 to 218 °C for the first, 177 to 180 °C for the second.

Compared with CC(C)(C)OC(=O)NC1CCCCCC=CC2CC2(C(=O)NS(=O)(=O)C2CC2)NC(=O)C2CC(OC(=O)c3ccccc3)CN2C1=O (centres undefined), CC12CCC3c4ccc(C(=O)O)cc4CCC3C1CCC2C(=O)c1cccc2ccccc12 (centres undefined) is higher in melting point: 140 to 142 °C for the first, 228 °C for the second.

Compared with CS(=O)(=O)c1ccc(-c2cnn(CC(F)(F)F)c(=O)c2OC2CCCC2)cc1, CS(=O)(=O)c1ccc(-c2cnn(-c3ccc(Cl)s3)c(=O)c2-c2ccc(F)cc2)cc1 is higher in melting point: 148 to 150 °C for the first, 190 to 192 °C for the second.

First: CCCCc1c(-c2cccnn2)ssc1=S
Second: Nc1ccccc1-c1n[nH]c(=S)n1N
The melting point of the first is lower: 94 °C for the first, 191 to 192 °C for the second.

First: Clc1ccc(C=Cc2ccccc2)cc1Cl
Second: COC(=O)c1cscc1NC(=O)COc1ccc(-c2ccccc2Cl)cn1
The melting point of the first is lower: 87.7 °C for the first, 151 to 155 °C for the second.

First: CCOC(=O)c1c(N2CCN(C(=O)c3cccs3)CC2)c2ccccc2[nH]c1=O
Second: Cc1oc(-c2ccccc2)nc1C(O)COc1ccc(CC2SC(=O)NC2=O)nc1 (centres undefined)
The melting point of the first is higher: 198 °C for the first, 55 to 72 °C for the second.

Compared with BrCCOc1ccsc1, CCOc1ccc(N)cc1OC is higher in melting point: 46 °C for the first, 54 to 56 °C for the second.

First: O=S(=O)(NCCO)c1cccc(-c2cc(-c3nc(-c4ccc(C(F)(F)F)cc4)cc(C(F)(F)F)n3)ccn2)c1
Second: CC(=Cc1ccc2ccc3cccc4ccc1c2c34)c1ccc(Cl)cc1
The melting point of the first is higher: 192 °C for the first, 162 to 164 °C for the second.

First: Cc1oc(-c2ccccc2)nc1CCOc1ccc(C[C@H](NC(=O)C(F)=Cc2ccccc2)C(=O)O)cc1
Second: Nc1nc(O)c2c(n1)NCC(CCc1ccc(C(=O)N[C@@H](CCC(=O)O)C(=O)O)cc1)C2 (some centres undefined)
The melting point of the first is lower: 174 to 176 °C for the first, > 250 °C for the second.

First: CC1C(=O)NC2=NC=CCN21 (centres undefined)
Second: S=C1NCC(C2=CCC=CC2)N1 (centres undefined)
The melting point of the first is higher: 212 °C for the first, 165 to 167 °C for the second.

Compared with Cc1ncc(CS)c2c1OC(c1ccccc1)OC2 (centres undefined), COC(C)Cc1nc2c(N)nc3ccccc3c2n1CC(C)C (centres undefined) is higher in melting point: 110 to 112 °C for the first, 139 to 141 °C for the second.

Compared with CCCCCCCC1CCC(CC(C#N)c2ccc(Br)cc2)CC1 (centres undefined), CCCc1cc(C(=O)O)cc(CCC)c1OCCCCCCc1cccc(OC)c1OC is higher in melting point: 56 to 57 °C for the first, 61 to 65 °C for the second.

Compared with N#Cc1c(C(=O)O)cnn1-c1ccc(Cl)cc1, CN1C(=O)CN(c2cccc(Cl)c2)NC1=O is lower in melting point: 192 to 195 °C for the first, 178 to 180 °C for the second.

CC(C(=O)O)=C(NC(=O)C(F)(F)F)c1ccccc1 and CC(=NO)C(=O)c1ccc(NS(C)(=O)=O)c(Sc2ccc(F)cc2F)c1 cannot be ordered by melting point: 140 °C for the first, 140 to 143 °C for the second.

First: CCCOC(=O)Cc1ccc(N[C@@H](CCC(N)=O)C(=O)O)cc1
Second: CCOC(=O)c1ncn(Cc2ccc(Cl)c(Cl)c2)c1C(=O)OCC
The melting point of the first is higher: 178 to 179 °C for the first, 105 to 107 °C for the second.

First: O=S1(=O)NC(C2CCCCC2)Nc2ccc(S(=O)(=O)N3CCCCC3)cc21 (centres undefined)
Second: O=c1c2cccc3c2c(cn1C1CN2CCC1CC2)CC3 (racemic)
The melting point of the first is higher: 262 to 264 °C for the first, 146 to 147 °C for the second.

First: C=COCCn1c(CN2CCN(C)CC2)nc2ccccc21
Second: Clc1ccc2[nH]cc(C3=CCN(CCCOc4cccc5[nH]ccc45)CC3)c2c1
The melting point of the first is lower: 65.5 to 67.5 °C for the first, 198 to 202 °C for the second.

First: CCCN(CCCCNc1ncc(Cc2ccncc2)c(=O)[nH]1)c1ccccn1
Second: c1ccc2c(c1)Cc1cc(C3(Cn4cncn4)OCCO3)ccc1-2
The melting point of the first is lower: 58 to 60 °C for the first, 187 °C for the second.

First: COc1cc(C2OCCO2)cc(C#N)c1OC
Second: N#Cc1cc2c(cc1C(F)(F)F)[nH]c(=O)c(=O)n2OCC(=O)O
The melting point of the first is lower: 76.5 to 77.5 °C for the first, 257 °C for the second.

Compared with O=[N+]([O-])c1cc(CO)cc([N+](=O)[O-])c1, Cc1ccc(CNc2nc(Cl)nc(OCC(F)(F)F)n2)o1 is lower in melting point: 89 °C for the first, 70 to 72 °C for the second.
